Five compounds from patent publication US9783586B2, “Inhibitors of the linear ubiquitin chain assembly complex (LUBAC) and related methods” (The United States of America, as represented by the …, priority 2013, dated 2017) can be followed below.

What all share (assay type): cell-based
The target of one assay is T1, RBCK1/RNF31 interaction (Homo sapiens, UniProt Q9BYM8).
T1 construct: expressed in transfected cells; host or cells: HEK-293
T1 sequence (Q9BYM8 1-510): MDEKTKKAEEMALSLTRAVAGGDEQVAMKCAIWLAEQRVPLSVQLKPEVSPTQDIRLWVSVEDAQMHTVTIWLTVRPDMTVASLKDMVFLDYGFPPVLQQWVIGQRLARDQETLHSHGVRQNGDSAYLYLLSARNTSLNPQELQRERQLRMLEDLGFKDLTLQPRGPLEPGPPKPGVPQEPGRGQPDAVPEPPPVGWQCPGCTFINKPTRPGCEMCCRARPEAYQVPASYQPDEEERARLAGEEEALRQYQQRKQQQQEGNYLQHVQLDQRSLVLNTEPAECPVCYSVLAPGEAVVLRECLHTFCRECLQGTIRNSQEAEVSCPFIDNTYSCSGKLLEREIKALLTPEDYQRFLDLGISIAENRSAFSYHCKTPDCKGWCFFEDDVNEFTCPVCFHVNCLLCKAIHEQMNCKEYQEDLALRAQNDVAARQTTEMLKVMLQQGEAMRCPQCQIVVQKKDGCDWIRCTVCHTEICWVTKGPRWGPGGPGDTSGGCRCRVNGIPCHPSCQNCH
In words: RBCK1/RNF31 co-immunoprecipitation (LUBAC complex formation) in co-transfected HEK-293 cells. The following applies: for Interference with LUBAC function: Example 9, tested as described in Example 7 (present tense).

For a further assay, the system named is NF-κB. Description: NF-κB luciferase reporter assay. The method, then:
A third experiment was done using a different reporter system for NF-κB activity. HBL1 and TMD8 ABC DLBCL lines cell lines were created with an NF-κB transcriptional reporter by transduction with lentiviral particles containing an inducible NF-κB-responsive luciferase reporter construct (SA Biosciences, Valencia, Calif.) and selected with puromycin. Luciferase activity was measured using the DUAL-LUCIFERASE™ Reporter Assay System (Promega) on a Microtiter Plate Luminometer (Dyn-Ex Technologies, Chantilly, Va.). The transduced HBL and TMD8 cell lines were then transfected with constructs that inducibly express control (SC4) or RNF31 shRNAs described above. Expression of shRNAs was induced using doxycyline, and the luciferase reporter activity in shRNF31 expression cells was measured and normalized relative to control (SC4). Cells were also treated with the specific IKKβ inhibitor (MLN120B) as a positive control. Experiments were done in triplicate, and results are shown in FIG. 2C (error bars indicate SEM).
The ability of these peptides to inhibit NF-κB activity in ABC DLBCL was determined using the NF-κB luciferase reporter assay described above. Negative control cells were treated with dimethyl sulfoxide (DMSO), and positive control cells were treated with Bruton's tyrosine kinase (Btk) inhibitor ibrutinib. […] Cells were treated with peptides at concentrations of 5 μM or 20 μM for 2 days. Relative NF-κB-luciferase reporter activity was normalized and measured relative to control (DMSO-treated) cells. The results of triplicate experiments are shown in FIG. 4 (error bars indicate the SEM).

Another assay deals with ABC DLBCL cell lines. In words: MTS cell viability assay, ABC DLBCL. The following applies: ABC DLBCL cells, Example 10 (FIG. 8C). The protocol:
ABC and GCB DLBCL cell lines were treated with RNF31 stapled peptides of Table 2 at concentrations of 5 μM or 20 μM for four days. Cell viability was determined using the following MTS assay. Cells were plated in triplicate at a density of 15,000 cells per well in 96-well plates. Cell viability after indicated treatments was assayed by adding 3-(4,5-dimethylthiazol-2-yl)-5-(3-carboxymethoxyphenyl)-2-(4-sulphophenyl)-2H tetrazolium and an electron coupling reagent (phenazine methosulphate from Promega, Madison, Wis.), incubated for 3 hours and measured by the amount of 490 nm absorbance using a 96-well plate reader. The background was subtracted using a media only control. The results of these MTS assays done in triplicate are shown in FIGS. 7A-7D (error bars indicate the SEM), and cell viability is expressed as the fraction of cells remaining after four days treatment, relative to the initial number of cells at the start of treatment (time 0). The results of MTS cell viability assay indicate that amino-terminal cross-linked peptides RNF31-N (SEQ ID NO: 11) and RNF31-NC (SEQ ID NO: 12) were toxic to ABC DLBCL cell lines but had little effect on GCB DLBCL cell lines tested.
In general terms: Tetrazolium assays rely on reduction of a dye to a coloured formazan, in cell work by metabolically active cells.

A further assay deals with IκBα. Description: IκBα-luciferase reporter assay. To be noted: ABC DLBCL cells, Example 10 (FIG. 8B). An excerpt: In a second experiment, HBL1 and TMD8 ABC DLBCL lines were engineered to contain an NF-κB-driven luciferase reporter. Vectors expressing an IκBα-luciferase fusion protein were constructed using Photinus luciferase from pGL3 vector (Promega, Madison, Wis.) as the reporter and Renilla luciferase construct from phRL-TK (Promega) was used for normalization. Stable clones were identified that were responsive to […] (see Lam et al, Clin Cancer Res, 11: 28-40 (2005)). After development with the DUAL-GLO luciferase assay system (Promega), the ratio of IκBα-Photinus to Renilla luminescence was normalized to that in untreated or uninduced cultures. The IκBα assay, which relies on the correlation between NF-κB activity and IKKβ kinase activity, was previously described in Lenz et al, Science, 319: 1676-1679 (2008). In brief, IKKβ kinase phosphorylates IκBα, which leads to degradation of IκBα (an inhibitor of NF-κB) and thereby activates NF-κB.
The engineered cells were transfected with control (SC4) or RNF31 shRNAs under the control of a doxycyline promoter as described in Example 2. Expression of shRNA was induced with doxycyline, and relative amounts of NF-κB Luciferase reporter activity was measured and normalized relative to control (SC4) shRNA. As additional controls, the expression of NF-κB Luciferase reporter activity was measured in cells that were not expressing shRNAs and which were either treated with the specific IKKβ inhibitor (“MLM-120B”) or untreated (“No Rx”). Experiments were done in triplicate and the results are shown in FIG. 2B (error bars indicate standard error of the mean (SEM)).

Positions of bridges follow the written chain, without caps; N, C: chain ends. Non-standard residues stand in square brackets, D forms with d. Residues, ends and D or L forms follow the SMILES beside them. No end group written: not given here. S5 = C=CCCC[C@](C)(N)C(=O)O; βAla = NCCC(=O)O

With `CC(=O)NCCC(=O)N[C@@H](CO)C(=O)N[C@@H](CCCNC(=N)N)C(=O)N[C@@]1(C)CCCC=CCCC[C@@](C)(C(=O)N[C@@H](CCC(N)=O)C(=O)N[C@@H](CCCNC(=N)N)C(=O)N[C@@H](CCC(N)=O)C(=O)N[C@@H](CCCNC(=N)N)C(=O)N[C@@H](CC(C)C)C(=O)N[C@@H](CCC(=O)O)C(=O)NCC(=O)N[C@@H](Cc2ccccc2)C(=O)N[C@@H](CCCNC(=N)N)C(=O)N[C@@H](CCC(N)=O)C(=O)N[C@@H](CCCNC(=N)N)C(=O)N[C@@]2(C)CCCC=CCCC[C@@](C)(C(N)=O)NC(=O)[C@H](CO)NC(=O)[C@H](CC(=O)O)NC(=O)[C@H](Cc3c[nH]c4ccccc34)NC2=O)NC(=O)[C@H](CCC(=O)O)NC(=O)[C@H]([C@@H](C)O)NC(=O)[C@H](CC(C)C)NC1=O` [RNF31-NC P2G, Ac-βAla Ser Arg Xaa Leu Thr Glu Xaa Gln Arg Gln Arg Leu Glu Gly Phe Arg Gln Arg Xaa Trp Asp Ser Xaa-NH2] (Ac-[βAla]SR[S5]LTE[S5]QRQRLEGFRQR[S5]WDS[S5]-NH2; staple 4-8, 20-24), the “Interference with LUBAC function” value at RBCK1/RNF31 interaction was “interfere with LUBAC function”.
For the compound `CC(=O)NCCC(=O)N[C@@H](CO)C(=O)N[C@@H](CCCNC(=N)N)C(=O)N[C@@]1(C)CCCC=CCCC[C@@](C)(C(=O)N[C@@H](CCC(N)=O)C(=O)N[C@@H](CCCNC(=N)N)C(=O)N[C@@H](CCC(N)=O)C(=O)N[C@@H](CCCNC(=N)N)C(=O)N[C@@H](CC(C)C)C(=O)N[C@@H](CCC(=O)O)C(=O)N2CCC[C@H]2C(=O)N[C@@H](Cc2ccccc2)C(=O)N[C@@H](CS)C(=O)N[C@@H](CCC(N)=O)C(=O)N[C@@H](CCCNC(=N)N)C(=O)N[C@@]2(C)CCCC=CCCC[C@@](C)(C(N)=O)NC(=O)[C@H](CO)NC(=O)[C@H](CC(=O)O)NC(=O)[C@H](Cc3c[nH]c4ccccc34)NC2=O)NC(=O)[C@H](CCC(=O)O)NC(=O)[C@H]([C@@H](C)O)NC(=O)[C@H](CC(C)C)NC1=O` [RNF31-NC R2C, Ac-βAla Ser Arg Xaa Leu Thr Glu Xaa Gln Arg Gln Arg Leu Glu Pro Phe Cys Gln Arg Xaa Trp Asp Ser Xaa-NH2] (Ac-[βAla]SR[S5]LTE[S5]QRQRLEPFCQR[S5]WDS[S5]-NH2; staple 4-8, 20-24), at RBCK1/RNF31 interaction, the “Interference with LUBAC function” value is on record as “interfere with LUBAC function”.
On the same count and under the same terms, to `CC(=O)NCCC(=O)N[C@@H](CO)C(=O)N[C@@H](CCCNC(=N)N)C(=O)N[C@@]1(C)CCCC=CCCC[C@@](C)(C(=O)N[C@@H](CCC(N)=O)C(=O)N[C@@H](CCCNC(=N)N)C(=O)N[C@@H](CCC(N)=O)C(=O)N[C@@H](CCCNC(=N)N)C(=O)N[C@@H](CC(C)C)C(=O)N[C@@H](CCC(=O)O)C(=O)N2CCC[C@H]2C(=O)N[C@@H](Cc2ccccc2)C(=O)N[C@@H](CS)C(=O)N[C@@H](CC(C)C)C(=O)N[C@@H](CCCNC(=N)N)C(=O)N[C@@]2(C)CCCC=CCCC[C@@](C)(C(N)=O)NC(=O)[C@H](CO)NC(=O)[C@H](CC(=O)O)NC(=O)[C@H](Cc3c[nH]c4ccccc34)NC2=O)NC(=O)[C@H](CCC(=O)O)NC(=O)[C@H]([C@@H](C)O)NC(=O)[C@H](CC(C)C)NC1=O` [RNF31-NC R2CL, Ac-βAla Ser Arg Xaa Leu Thr Glu Xaa Gln Arg Gln Arg Leu Glu Pro Phe Cys Leu Arg Xaa Trp Asp Ser Xaa-NH2] (Ac-[βAla]SR[S5]LTE[S5]QRQRLEPFCLR[S5]WDS[S5]-NH2; staple 4-8, 20-24) belongs “interfere with LUBAC function”.
“Ac-βAla Ser Arg Ala Leu Thr Glu Leu Gln Arg Gln Arg Leu Glu Pro Phe Arg Gln Arg Xaa Trp Asp Ser Xaa-NH2 (Ac-[βAla]SRALTELQRQRLEPFRQR[S5]WDS[S5]-NH2; staple 20-24; SMILES CC(=O)NCCC(=O)N[C@@H](CO)C(=O)N[C@@H](CCCNC(=N)N)C(=O)N[C@@H](C)C(=O)N[C@@H](CC(C)C)C(=O)N[C@H](C(=O)N[C@@H](CCC(=O)O)C(=O)N[C@@H](CC(C)C)C(=O)N[C@@H](CCC(N)=O)C(=O)N[C@@H](CCCNC(=N)N)C(=O)N[C@@H](CCC(N)=O)C(=O)N[C@@H](CCCNC(=N)N)C(=O)N[C@@H](CC(C)C)C(=O)N[C@@H](CCC(=O)O)C(=O)N1CCC[C@H]1C(=O)N[C@@H](Cc1ccccc1)C(=O)N[C@@H](CCCNC(=N)N)C(=O)N[C@@H](CCC(N)=O)C(=O)N[C@@H](CCCNC(=N)N)C(=O)N[C@@]1(C)CCCC=CCCC[C@@](C)(C(N)=O)NC(=O)[C@H](CO)NC(=O)[C@H](CC(=O)O)NC(=O)[C@H](Cc2c[nH]c3ccccc23)NC1=O)[C@@H](C)O) [RNF31-C]”: the “Relative NF-κB-luciferase reporter activity” value in the assay with NF-κB (HBL1 ABC DLBCL cells, 5 μM or 20 μM, 2 days, relative to DMSO (FIG. 4)) is “less of an effect”. For the same compound, in the assay with RBCK1/RNF31 interaction (HEK-293 cells, 5 μM or 20 μM, 24 hours, relative to DMSO (FIGS. 5, 6)), the “RBCK1/RNF31 interaction (anti-HA immunoprecipitation, densitometry)” value is on record as “little if any effect”.
Regarding SRALTELQRQRLEPFRQRLWDSG [SEQ ID NO:1], the NF-κB activity entry with NF-κB (ABC DLBCL cells, Example 10 (FIG. 8A)) is reported as “little or no effect”. Also, in the assay on ABC DLBCL cell lines, the “Cell viability (MTS)” value is “little or no effect”. In addition, the “IκBα activity (IκBα-reporter)” value with IκBα is reported as “little or no effect”.
